Assay results from US4017607A.
≈ marks a conversion by molar mass, not a printed value. Like-named read-outs stand apart in the source and are kept apart here.

Key:
[1] = tested on: Corynebacterium diphtheriae Type gravis; assay: Minimum inhibitory concentration, serial dilution method; type: cell-based; conditions: Corynebacterium diphtheriae, 24 h, read-out: Minimum Inhibitory Concentration
[2] = tested on: Staphylococcus aureus Smith; assay: as above; type: cell-based; conditions: Staphylococcus aureus, 24 h, read-out: Minimum Inhibitory Concentration
[3] = tested on: Diplococcus pneumoniae Type III; assay: as above; type: cell-based; conditions: Streptococcus pneumoniae, 24 h, read-out: Minimum Inhibitory Concentration
[4] = tested on: Staphylococcus aureus 209P; conditions: 7th day, 10 mice per group
[5] = tested on: Staphylococcus aureus Terajima; assay: Minimum inhibitory concentration, serial dilution method; type: cell-based; conditions: Staphylococcus aureus, 24 h, read-out: Minimum Inhibitory Concentration
Sarcina lutea = assay: as above; type: cell-based; conditions: Micrococcus luteus, 24 h, read-out: Minimum Inhibitory Concentration
[6] = tested on: Bacillus anthracis No. 119; assay: microbe, parasite or virus in culture; type: cell-based; conditions: NO.119, 24 h, read-out: Minimum Inhibitory Concentration
[7] = tested on: Staphylococcus aureus 209P; assay: Minimum inhibitory concentration, serial dilution method, Brain Heart Infusion broth; type: cell-based; conditions: Staphylococcus aureus, 209P, 24 h, read-out: Minimum Inhibitory Concentration
[8] = tested on: Corynebacterium diphtheriae Type intermedius; assay: Minimum inhibitory concentration, serial dilution method; type: cell-based; conditions: Corynebacterium diphtheriae, 24 h, read-out: Minimum Inhibitory Concentration
[9] = tested on: Diplococcus pneumoniae Type I; assay: as above; type: cell-based; conditions: Streptococcus pneumoniae, 24 h, read-out: Minimum Inhibitory Concentration
[10] = tested on: Staphylococcus albus 1200A; assay: as above; type: cell-based; conditions: Staphylococcus, 1200A, 24 h, read-out: Minimum Inhibitory Concentration
[11] = tested on: Bacillus subtilis ATCC 6633; assay: as above; type: cell-based; conditions: Bacillus subtilis, ATCC6633, 24 h, read-out: Minimum Inhibitory Concentration
[12] = tested on: Streptococcus pyogenes D-58; assay: as above; type: cell-based; conditions: Streptococcus pyogenes, D58, 24 h, read-out: Minimum Inhibitory Concentration
[13] = tested on: Bacillus subtilis PCI 219; assay: as above; type: cell-based; conditions: Bacillus subtilis, PCI219, 24 h, read-out: Minimum Inhibitory Concentration
[14] = Acute toxicity by oral administration to mice; conditions: mouse, in vivo, free base
[15] = tested on: Streptococcus faecalis ATCC 8043; assay: Minimum inhibitory concentration, serial dilution method; type: cell-based; conditions: Enterococcus faecalis, ATCC8043, 24 h, read-out: Minimum Inhibitory Concentration
[16] = tested on: Streptococcus hemolyticus Cook; assay: as above; type: cell-based; conditions: Streptococcus pyogenes, 24 h, read-out: Minimum Inhibitory Concentration
[17] = tested on: Streptococcus hemolyticus D-90; assay: as above; type: cell-based; conditions: Streptococcus pyogenes, D90, 24 h, read-out: Minimum Inhibitory Concentration

`CCC(=O)OC1CC(=O)OC(C)CC=CC=CC(O)C(C)CC(CC=O)C(OC2OC(C)C(OC3CC(C)(O)C(OC(=O)CC)C(C)O3)C(N(C)C)C2O)C1OC` (stereo not shown) [SF-837 substance, reference compound] showed an MIC [1] of 0.19 µg/mL (≈ 0.233 µM), an MIC [2] of 0.19 µg/mL (≈ 0.233 µM) and an MIC [3] of 0.04 µg/mL (≈ 0.0491 µM). For the same molecule, the “Rate of surviving mice in each group of mice” value ([4]; 100 mg/kg oral) was 0/10, the “Rate of surviving mice in each group of mice” value ([4]; 200 mg/kg oral) was 6/10 and the MIC [5] was 1.56 µg/mL (≈ 1.92 µM). The MIC (Sarcina lutea) was 0.09 µg/mL (≈ 0.111 µM), the MIC [6] was 0.78 µg/mL (≈ 0.958 µM) and the MIC [7] was 0.78 µg/mL (≈ 0.958 µM). For the same molecule, the MIC [8] was 0.19 µg/mL (≈ 0.233 µM), the MIC [9] was 0.04 µg/mL (≈ 0.0491 µM) and the MIC [10] was 0.78 µg/mL (≈ 0.958 µM). For the same molecule, the MIC [11] was 1.56 µg/mL (≈ 1.92 µM), the MIC [12] was 0.09 µg/mL (≈ 0.111 µM) and the MIC [13] was 0.78 µg/mL (≈ 0.958 µM). For the same molecule, the LD50 [14] was 3200 mg/kg, the MIC [15] was 1.56 µg/mL (≈ 1.92 µM) and the MIC [16] was 0.09 µg/mL (≈ 0.111 µM). For the same molecule, the MIC [17] was 1.56 µg/mL (≈ 1.92 µM).
